# In ChEMBL document CHEMBL6078677, “Discovery and optimization of tetrahydroacridine derivatives as a novel class of antibiotics against multidrug-resistant Gram-positive pathogens by targeting type I signal peptidase and disrupting bacterial membrane” (Eur J Med Chem, 2025):
# Active and inactive are the calls of the source. No cut-off for these calls is given here.
# Tests used:
# [1] = Cytotoxicity against human Caco-2 cells assessed as reduction in cell viability incubated for 48 hrs by CCK8 assay; format: toxicity, cell-based
# Staphylococcus aureus [2] = experiment: Antimicrobial activity against Staphylococcus aureus ATCC 29213 assessed as inhibition of visible growth of bacteria incubated for 20 hrs by broth microdilution method; format: functional
# Staphylococcus aureus [3] = experiment: Antibacterial activity against methicillin-resistant Staphylococcus aureus YZSA-24 infected in cyclophosphamide-induced neutrophil depleted female ICR mouse model of skin infection assessed as log reduction in bacterial load at 2.5 %, TOP preadministered with cyclophosphamide for 5 days followed by bacterial administration and measured after 25 hrs of compound administration relative to […] group; format: functional
# [4] = Cytotoxicity against human HEp-2 cells assessed as cell viability at 16 times of MIC incubated for 48 hrs by CCK8 assay (reference value: 100 %); format: toxicity, cell-based; settings: read-out: Activity
# Acinetobacter baumannii [5] = experiment: Antimicrobial activity against Acinetobacter baumannii AB11 assessed as inhibition of visible growth of bacteria incubated for 20 hrs by broth microdilution method; format: functional
# Streptococcus pyogenes = experiment: Antimicrobial activity against Streptococcus pyogenes DL02 harboring erythromycin-resistance rRNA methylase B assessed as inhibition of visible growth of bacteria incubated for 20 hrs by broth microdilution method; format: functional
# [6] = Hemolytic activity in Kunming mouse erythrocytes measured after 1 hrs by absorbance based assay; format: toxicity, cell-based, Erythrocyte
# Enterococcus faecalis [7] = experiment: Antimicrobial activity against Enterococcus faecalis J2 harboring erythromycin-resistance rRNA methylase B and oxazolidinone phenicol transferable resistance gene assessed as inhibition of visible growth of bacteria incubated for 20 hrs by broth microdilution method; format: functional
# Acinetobacter baumannii [8] = experiment: Antimicrobial activity against Acinetobacter baumannii 7979 assessed as inhibition of visible growth of bacteria incubated for 20 hrs by broth microdilution method; format: functional
# Streptococcus suis = experiment: microbe, parasite or virus in culture; format: functional; settings: SH0918, time 20 hrs
# Description: Antimicrobial activity against Streptococcus suis SH0918 harboring erythromycin-resistance rRNA methylase B, tetracycline efflux protein O and oxazolidinone phenicol transferable resistance gene assessed as inhibition of visible growth of bacteria incubated for 20 hrs by broth microdilution method
# [9] = Acute toxicity in ICR mouse model assessed as change in liver pathology at 25 to 100 mg/kg, IG administered for 7 days by H and E staining based analysis; format: organism-based; settings: in vivo, po, 168 h, dose 25-100 mg/kg, time 7 day
# Staphylococcus aureus [10] = experiment: Antimicrobial activity against Staphylococcus aureus YZSA-21 harboring erythromycin resistance rRNA methylase C assessed as inhibition of visible growth of bacteria incubated for 20 hrs by broth microdilution method; format: functional
# Staphylococcus aureus [11] = experiment: Disruption of preformed biofilm in Staphylococcus aureus ATCC 29213 assessed as increase in red fluorescence at 0.5 to 2 times of MIC measured after 72 hrs by SYTO-9/PI staining based CLSM imaging analysis; format: functional, organism-based
# Enterococcus faecium = experiment: Antimicrobial activity against Enterococcus faecium HFY01 assessed as inhibition of visible growth of bacteria incubated for 20 hrs by broth microdilution method; format: functional
# [12] = Cytotoxicity against human HEp-2 cells assessed as cell viability at 8 times of MIC incubated for 48 hrs by CCK8 assay (reference value: 100 %); format: toxicity, cell-based; settings: read-out: Activity
# [13] = Acute toxicity in ICR mouse model assessed as change in body weight at 25 to 100 mg/kg, IG administered for 7 days; format: organism-based; settings: in vivo, po, 168 h, dose 25-100 mg/kg, time 7 day
# [14] = Metabolic stability in human liver microsomes assessed as hepatic extraction ratio at 100 uM preincubated for 5 mins followed by NADPH addition and measured upto 60 mins by LC-MS/MS analysis; format: ADME, Microsome; settings: time < 65 min, read-out: ERH
# Klebsiella pneumoniae = experiment: Antimicrobial activity against Klebsiella pneumoniae 9-1 assessed as inhibition of visible growth of bacteria incubated for 20 hrs by broth microdilution method; format: functional
# [15] = Cytotoxicity against human HEp-2 cells assessed as cell viability at 2 times of MIC incubated for 48 hrs by CCK8 assay (reference value: 100 %); format: toxicity, cell-based; settings: read-out: Activity
# Staphylococcus aureus [16] = experiment: Drug resistance, ratio of MIC for Staphylococcus aureus ATCC 29213 measured after 28 days to MIC for Staphylococcus aureus ATCC 29213 measured after 20 hrs; format: functional
# Staphylococcus aureus [17] = experiment: microbe, parasite or virus in culture; format: functional; settings: M92-1, time 20 hrs
# Description: Antimicrobial activity against Staphylococcus aureus M92-1 harboring erythromycin resistance rRNA methylase B, tetracycline efflux protein L and oxazolidinone-phenicol transferable resistance gene assessed as inhibition of visible growth of bacteria incubated for 20 hrs by broth microdilution method
# [18] = Metabolic stability in rat liver microsomes assessed as intrinsic clearance at 100 uM preincubated for 5 mins followed by NADPH addition and measured upto 60 mins by LC-MS/MS analysis; format: ADME, Microsome; settings: time < 65 min, read-out: CLH
# Enterococcus faecalis [19] = experiment: Antimicrobial activity against Enterococcus faecalis ES01 harboring erythromycin-resistance rRNA methylase B and vanB-type vancomycin-resistance locus assessed as inhibition of visible growth of bacteria incubated for 20 hrs by broth microdilution method; format: functional
# [20] = Metabolic stability in mouse liver microsomes assessed as hepatic extraction ratio at 100 uM preincubated for 5 mins followed by NADPH addition and measured upto 60 mins by LC-MS/MS analysis; format: ADME, Microsome; settings: time < 65 min, read-out: ERH
# Escherichia coli = experiment: Antimicrobial activity against Escherichia coli ATCC 25922 assessed as inhibition of visible growth of bacteria incubated for 20 hrs by broth microdilution method; format: functional
# Pseudomonas aeruginosa [21] = experiment: Antimicrobial activity against Pseudomonas aeruginosa PA01 assessed as inhibition of visible growth of bacteria incubated for 20 hrs by broth microdilution method; format: functional
# Salmonella enteritidis = experiment: Antimicrobial activity against Salmonella enteritis S1 assessed as inhibition of visible growth of bacteria incubated for 20 hrs by broth microdilution method; format: functional, Salmonella enterica subsp. enterica serovar Enteritidis; settings: Salmonella enterica
# Cell membrane [22] = experiment: Disruption of cell membrane integrity in Staphylococcus aureus ATCC 29213 assessed as increase in red fluorescence intensity incubated for 4 hrs by SYTO-9/PI staining based LIVE/DEAD Baclight bacterial viability assay; format: subcellular
# [23] = Hemolytic activity in Kunming mouse erythrocytes assessed as hemolysis at 2 times of MIC measured after 1 hrs by absorbance based assay relative to control; format: toxicity, cell-based, Erythrocyte; settings: read-out: Activity
# Enterococcus faecalis [24] = experiment: microbe, parasite or virus in culture; format: functional; settings: SF23-1, time 20 hrs
# Description: Antimicrobial activity against Enterococcus faecalis SF23-1 harboring erythromycin-resistance rRNA methylase B, tetracycline efflux protein L and chloramphenicol-florfenicol resistance methylase assessed as inhibition of visible growth of bacteria incubated for 20 hrs by broth microdilution method
# Staphylococcus aureus [25] = experiment: Antimicrobial activity against Staphylococcus aureus YZSA-24 harboring erythromycin resistance rRNA methylase C and methicillin resistance gene resistance locus assessed as inhibition of visible growth of bacteria incubated for 20 hrs by broth microdilution method; format: functional
# [26] = Metabolic stability in human liver microsomes assessed as intrinsic clearance at 100 uM preincubated for 5 mins followed by NADPH addition and measured upto 60 mins by LC-MS/MS analysis; format: ADME, Microsome; settings: time < 65 min, read-out: CLH
# [27] = Cytotoxicity against human Caco-2 cells assessed as cell viability at 4 times of MIC incubated for 48 hrs by CCK8 assay (reference value: 99.54 %); format: toxicity, cell-based; settings: read-out: Activity
# Cell membrane [28] = experiment: Disruption of cell membrane integrity in Staphylococcus aureus ATCC 29213 assessed as appearance of shriveled surface at 0.5 to 2 times of MIC by scanning electron microscopic analysis; format: subcellular
# [29] = Cytotoxicity against human Caco-2 cells assessed as cell viability at 16 times of MIC incubated for 48 hrs by CCK8 assay (reference value: 99.54 %); format: toxicity, cell-based; settings: read-out: Activity
# [30] = Metabolic stability in rat liver microsomes assessed as half-life at 100 uM preincubated for 5 mins followed by NADPH addition and measured upto 60 mins by LC-MS/MS analysis; format: ADME, Microsome; settings: time < 65 min
# Pseudomonas aeruginosa [31] = experiment: Antimicrobial activity against Pseudomonas aeruginosa PA14 assessed as inhibition of visible growth of bacteria incubated for 20 hrs by broth microdilution method; format: functional
# [32] = Metabolic stability in human liver microsomes assessed as half-life at 100 uM preincubated for 5 mins followed by NADPH addition and measured upto 60 mins by LC-MS/MS analysis; format: ADME, Microsome; settings: time < 65 min
smiles,measurement,setting,value
CC1C/C(=C\c2ccc(-c3ccc(Cl)c(C(F)(F)F)c3)s2)c2nc3ccccc3c(C(=O)O)c2C1 (racemic),CC50 at 48 h,[1],21.9 µg/mL
same,MIC,Staphylococcus aureus [2],1 µg/mL
same,Activity,Staphylococcus aureus [3],2.3 log10CFU/ml
same,"viability at 48 h, 16 times of MIC",[4],44.5%
same,MIC,Acinetobacter baumannii [5],> 128 µg/mL
same,MIC,Streptococcus pyogenes,16 µg/mL
same,HC50 at 1 h,[6],13.3 µg/mL
same,MIC,Enterococcus faecalis [7],2 µg/mL
same,MIC,Acinetobacter baumannii [8],> 128 µg/mL
same,MIC,Streptococcus suis,16 µg/mL
same,Activity,[9],Non-toxic
same,MIC,Staphylococcus aureus [10],1 µg/mL
same,Activity,Staphylococcus aureus [11],Active
same,MIC,Enterococcus faecium,2 µg/mL
same,"viability at 48 h, 8 times of MIC",[12],82.5%
same,Activity,[13],Non-toxic
same,"hepatic extraction ratio at 1 h, 100 µM",[14],< 0.27
same,MIC,Klebsiella pneumoniae,> 128 µg/mL
same,"viability at 48 h, 2 times of MIC",[15],93.7%
same,Ratio,Staphylococcus aureus [16],2
same,MIC,Staphylococcus aureus [17],1 µg/mL
same,microsomal CLint at 100 µM,[18],< 7.5 µL/min/mg
same,MIC,Enterococcus faecalis [19],2 µg/mL
same,"hepatic extraction ratio at 1 h, 100 µM",[20],< 0.26
same,MIC,Escherichia coli,> 128 µg/mL
same,MIC,Pseudomonas aeruginosa [21],> 128 µg/mL
same,MIC,Salmonella enteritidis,128 µg/mL
same,Activity,Cell membrane [22],Dose-dependent-effect
same,"hemolysis at 1 h, 2 times of MIC",[23],0%
same,MIC,Enterococcus faecalis [24],1 µg/mL
same,MIC,Staphylococcus aureus [25],1 µg/mL
same,microsomal CLint at 100 µM,[26],< 7.5 µL/min/mg
same,"viability at 48 h, 4 times of MIC",[27],92.9%
same,Activity,Cell membrane [28],Active
same,"viability at 48 h, 16 times of MIC",[29],61.7%
same,half-life at 100 µM,[30],> 3.08 h
same,MIC,Pseudomonas aeruginosa [31],> 128 µg/mL
same,half-life at 100 µM,[32],> 3.08 h
